The text below walks through data of ChEMBL document CHEMBL3868634, “Animal models in the pharmacokinetic/pharmacodynamic evaluation of antimicrobial agents” (Bioorg Med Chem, 2016).

This series is described as follows: Ratio of AUC in mouse epithelial lining fluid to AUC in mouse serum. The class given is ADME. The settings on record: read-out: Ratio AUC.

The structures appear in SMILES notation.

With `CC(C)(O/N=C(\C(=O)N[C@@H]1C(=O)N2C(C(=O)[O-])=C(C[n+]3ccccc3)CS[C@H]12)c1csc(N)n1)C(=O)O` [CEFTAZIDIME], the Kp amounted to 0.201.
